Assay results published in patent publication US8114904B2, “Luminescence quenchers and fluorogenic probes for detection of reactive species” (Versitech Limited & Morningside Ventures Limited, priority 2008, dated 2012).

Assays:
[1] = Comparison of specificity with different ROS and RNS; details: for fluorescence enhancement by peroxynitrite compared with any other ROS and RNS: 25° C.
Method: The reactivity of Compound 10 was compared toward different reactive oxygen species (ROS) and reactive nitrogen species (RNS), including OCl^−, H2O2, ^1O2, NO, O2^•−, ^•OH, ONOO^− and alkylperoxyl radical (ROO^•). Different reactive oxygen species and reactive nitrogen species were added independently to 5 mL of the solution of Compound 10 (10 μM in 0.1 M potassium phosphate buffer). The changes of fluorescence intensity before and after the treatment were measured. The reactive oxygen species and reactive nitrogen species were prepared as follows. • a. H2O2 (final 100 μM) was added and then stirred for 1 hour at 25° C. • b. (3-(1,4-Dihydro-1,4-epidioxy-1-naphthyl)propionic acid) (final 100 μM) was added and then stirred at 25° C. for 1 hour. • c. 2,2′-Azobis(2-amidinopropane)dihydrochloride (final 100 μM) was added and then stirred at 25° C. for 1 hour. • d. SNP (Sodium Nitroferricyanide (III) Dihydrate) (final 100 μM) was added and then stirred for 1 hour at 25° C. • e. O2^•− was generated by xanthine and xanthine oxidase. Xanthine oxidase was added firstly. After xanthine oxidase was dissolved, xanthine (final 100 μM) was added and the mixtures were stirred at 25° C. for 1 hour. • f. Ferrous chloride (final 10 μM) was added in the presence of 10 equivalences of H2O2 (100 μM). • g. ONOO^− (final 10 μM) was added at 25° C. • h. NaOCl (final 10 μM) was added at 25° C. Commercial bleach was the source of NaOCl.
The reactivity of Compound 12 was compared toward different reactive oxygen species (ROS) and reactive nitrogen species (RNS), including OCl^−, H2O2, ^1O2, NO, O2^•−, ^•OH, ONOO^− and alkylperoxyl radical (ROO^•). Different reactive oxygen species and reactive nitrogen species were added independently to 5 mL of the solution of Compound 12 (1 μM in 0.1 M potassium phosphate buffer). The changes of fluorescence intensity before and after the treatment were measured. The reactive oxygen species and reactive nitrogen species were prepared as follows: • i. H2O2 (final 100 μM) was added and then stirred for 1 hour at 25° C. • j. (3-(1,4-Dihydro-1,4-epidioxy-1-naphthyl)propionic acid) (final 100 μM) was added and then stirred at 25° C. for 1 hour. • k. 2,2′-Azobis(2-amidinopropane)dihydrochloride (final 100 μM) was added and then stirred at 25° C. for 1 hour. • l. SNP (Sodium Nitroferricyanide (III) Dihydrate) (final 100 μM) was added and then stirred for 1 hour at 25° C. • m. O2^•− was generated by xanthine and xanthine oxidase. Xanthine oxidase was added firstly. After xanthine oxidase was dissolved, xanthine (final 100 μM) was added and the mixtures were stirred at 25° C. for 1 hour. • n. Ferrous chloride (final 10 μM) was added in the presence of 10 equivalences of H2O2 (100 μM). • o. ONOO^− (final 10 μM) was added at 25° C. • p. NaOCl (final 10 μM) was added at 25° C. Commercial bleach was the source of NaOCl.
The reactivity of Compound 14 was compared toward different reactive oxygen species (ROS) and reactive nitrogen species (RNS), including OCl^−, H2O2, ^1O2, NO, O2^•−, ^•OH, ONOO^− and alkylperoxyl radical (ROO^•). Different reactive oxygen species and reactive nitrogen species were added independently to 5 mL of the corresponding solution of Compound 14 (1 μM in 0.1 M potassium phosphate buffer). The changes in fluorescence intensity before and after the treatment were measured. The reactive oxygen species and reactive nitrogen species were prepared as follows: • a. H2O2 (final 100 μM) was added and then stirred for 1 hour at 25° C. • b. (3-(1,4-Dihydro-1,4-epidioxy-1-naphthyl)propionic acid) (final 100 μM) was added and then stirred at 25° C. for 1 hour. • c. 2,2′-Azobis(2-amidinopropane)dihydrochloride (final 100 μM) was added and then stirred at 25° C. for 1 hour. • d. SNP (Sodium Nitroferricyanide (III) Dihydrate) (final 100 μM) was added and then stirred for 1 hour at 25° C. • e. O2^•− was generated by xanthine and xanthine oxidase. Xanthine oxidase was added firstly. […]

[2] = Emission spectra of the probe itself; assay type: physicochemical; details: Hitachi F2500, 700 V
Method: (§1) Compound 10 obtained in Example 4 was dissolved in DMF to a concentration of 10 mM, and then the solution was diluted to 10 μM by 0.1 M phosphate buffer (pH 7.4). The fluorescence spectrum of the 10 μM solution of Compound 10 was measured using a Hitachi F2500 fluorescence spectrometer and the photomultiplier voltage was 700 V. The slit width was 2.5 nm for both excitation and emission. The measurement was carried out at an excitation wavelength of 520 nm. The results shown in FIG. 1 indicate that Compound 10 itself is non-fluorescent.
(§2) Compound 12 obtained in Example 5 was dissolved in DMF to a concentration of 1 mM, and then the solution was diluted to 1 μM by 0.1 M phosphate buffer (pH 7.4). The fluorescence spectrum of the 1 μM solution of Compound 12 was measured using a Hitachi F2500 fluorescence spectrometer and the photomultiplier voltage was 700 V. The slit width was 2.5 nm for both excitation and emission. The measurement was carried out at an excitation wavelength of 515 nm. The results shown in FIG. 4 indicate that Compound 12 itself is non-fluorescent.
as §2, with “Compound 14” for “Compound 12”, “Example 6” for “Example 5”, “FIG. 6” for “FIG. 4”
as §1, with “Compound 30” for “Compound 10”, “Example 7” for “Example 4”, “Hitachi F7000” for “Hitachi F2500”, “was 900” for “was 700”, “nm.” for “nm. The results shown in FIG. 1 indicate that Compound 10 itself is non-fluorescent.”

[3] = 10 μM probe in 0.1 M potassium phosphate buffer
[4] = 1 μM probe in 0.1 M potassium phosphate buffer

fluorescence of the probe itself ([2]; 10 μM, 0.1 M phosphate buffer pH 7.4, excitation 520 nm) | fluorescence of the probe itself ([2]; 1 μM, 0.1 M phosphate buffer pH 7.4, excitation 515 nm) | SMILES | reactivity among ROS and RNS in an abiotic system [1, 3] | fluorescence enhancement by peroxynitrite compared with any other ROS and RNS [1, 3] | reactivity among ROS and RNS in an abiotic system [1, 4] | fluorescence enhancement by peroxynitrite compared with any other ROS and RNS [1, 4]
non-fluorescent | – | CN(c1ccc(CCC(=O)C(F)(F)F)cc1)c1cc2c(cc1Cl)C1(OC(=O)c3ccccc31)c1cc(Cl)c(O)cc1O2 (stereo not drawn) [Compound 10] | much higher reactivity towards peroxynitrite | much stronger fluorescence enhancement | – | –
– | non-fluorescent | CN(c1ccc(O)cc1)c1ccc2c(c1)Oc1cc(O)ccc1C21OC(=O)c2ccccc21 (stereo not drawn) [Compound 12] | – | – | much higher reactivity towards peroxynitrite | much stronger fluorescence enhancement
